In patent US7335814B2, “Transgenic cells expressing glucosyltransferase nucleic acids” (The University of York, priority 2000, dated 2008):

B1: recombinant GTase A062 (Arabidopsis thaliana) (protein)
chain: MAPPHFLLVTFPAQGHVNPSLRFARRLIKRTGARVTFVTCVSVFHNSMIANHNKVENLSFLTFSDGFDDGGISTYEDRQKRSVNLKVNGDKALSDFIEATKNGDSPVTCLIYTILLNWAPKVARRFQLPSALLWIQPALVFNIYYTHFMGNKSVFELPNLSSLEIRDLPSFLTPSNTNKGAYDAFQEMMEFLIKETKPKILINTFDSLEPEALTAFPNIDMVAVGPLLPTEIFSGSTNKSVKDQSSSYTLWLDSKTESSVIYVSFGTMVELSKKQIEELARALIEGKRPFLWVITDKSNRETKTEGEEETEIEKIAGFRHELEEVGMIVSWCSQIEVLSHRAVGCFVTHCGWSSTLESLVLGVPVVAFPMWSDQPTNAKLLEESWKTGVRVRENKDGLVERGEIRRCLEAVMEEKSVELRENAKKWKRLAMEAGREGGSSDKNMEAFVEDICGESLIQNLCEAEEVKVK
notes: made in house; host or cells: E. coli

Assays:
[1] = target: T1, recombinant GTase A911 (Arabidopsis thaliana, UniProt O22182); test: Specific activity of recombinant GTase producing glucose ester against lignin precursors (HPLC); assay type: biochemical; design: made in house; host or cells: E. coli; details: 0.5 ml of potential substrates, 5 mM UDPG, 0.2 μg GTase, 200 μl, 20° C., 30 min
T1 sequence (O22182 1-456): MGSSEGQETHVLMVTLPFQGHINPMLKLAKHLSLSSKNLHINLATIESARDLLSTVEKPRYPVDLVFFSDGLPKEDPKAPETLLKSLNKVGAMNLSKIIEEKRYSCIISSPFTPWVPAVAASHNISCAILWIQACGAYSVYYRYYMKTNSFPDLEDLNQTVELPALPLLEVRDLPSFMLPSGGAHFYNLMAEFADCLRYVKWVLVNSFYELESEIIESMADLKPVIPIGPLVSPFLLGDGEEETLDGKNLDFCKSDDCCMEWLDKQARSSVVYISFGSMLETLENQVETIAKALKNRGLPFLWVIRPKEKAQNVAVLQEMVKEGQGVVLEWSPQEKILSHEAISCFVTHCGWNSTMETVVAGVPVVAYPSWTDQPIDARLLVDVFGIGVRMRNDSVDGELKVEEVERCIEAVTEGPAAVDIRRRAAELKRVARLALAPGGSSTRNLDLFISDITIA

[2] = target: T1, recombinant GTase A911; test: Kinetic studies (Michaelis-Menten) on recombinant GTase producing glucose esters; details: glucose ester formation
[3] = target: T2, recombinant GTase A42 (Arabidopsis thaliana, UniProt O23401); test: Specific activity of recombinant GTase producing glucose ester against lignin precursors (HPLC); assay type: biochemical; details: 0.5 ml of potential substrates, 5 mM UDPG, 0.2 μg GTase, 200 μl, 20° C., 30 min
T2 construct: made in house; host or cells: E. coli
T2 sequence (O23401 1-479): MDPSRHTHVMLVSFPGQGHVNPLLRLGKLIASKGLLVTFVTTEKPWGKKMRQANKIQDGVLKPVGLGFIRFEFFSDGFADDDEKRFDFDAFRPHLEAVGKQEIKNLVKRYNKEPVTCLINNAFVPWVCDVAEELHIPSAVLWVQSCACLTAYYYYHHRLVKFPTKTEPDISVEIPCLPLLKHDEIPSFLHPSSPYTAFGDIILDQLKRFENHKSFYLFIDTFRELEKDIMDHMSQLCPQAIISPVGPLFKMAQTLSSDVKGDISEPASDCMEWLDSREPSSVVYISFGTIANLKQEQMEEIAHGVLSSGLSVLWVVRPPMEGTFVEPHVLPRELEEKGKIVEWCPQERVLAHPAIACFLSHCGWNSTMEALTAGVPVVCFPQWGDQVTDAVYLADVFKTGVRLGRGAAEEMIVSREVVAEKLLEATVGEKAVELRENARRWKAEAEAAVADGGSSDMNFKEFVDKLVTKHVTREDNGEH

[4] = target: T3, recombinant GTase A41 (Arabidopsis thaliana, UniProt Q5XF20); test: as above; assay type: biochemical; details: 5 mM UDPG, 0.2 μg GTase, 200 μl, 20° C., 30 min
T3 construct: made in house; host or cells: E. coli
T3 sequence (Q5XF20 7-490): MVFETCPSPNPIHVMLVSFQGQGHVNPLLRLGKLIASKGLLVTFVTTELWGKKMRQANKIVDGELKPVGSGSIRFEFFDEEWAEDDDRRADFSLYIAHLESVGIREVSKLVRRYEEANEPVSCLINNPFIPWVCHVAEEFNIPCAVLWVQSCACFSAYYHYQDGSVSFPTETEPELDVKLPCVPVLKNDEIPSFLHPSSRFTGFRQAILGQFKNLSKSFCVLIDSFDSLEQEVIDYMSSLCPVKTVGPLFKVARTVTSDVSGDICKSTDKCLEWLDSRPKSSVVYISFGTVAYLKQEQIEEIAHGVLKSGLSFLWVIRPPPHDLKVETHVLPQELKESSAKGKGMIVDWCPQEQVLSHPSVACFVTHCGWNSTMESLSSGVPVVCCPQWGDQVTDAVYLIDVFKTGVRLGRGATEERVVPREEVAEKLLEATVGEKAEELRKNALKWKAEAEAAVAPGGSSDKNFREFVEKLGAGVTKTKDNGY

[5] = target: T4, recombinant GTase A43 (Arabidopsis thaliana, UniProt O23402); test: as above; assay type: biochemical; details: 0.5 ml of potential substrates, 5 mM UDPG, 0.2 μg GTase, 200 μl, 20° C., 30 min
T4 construct: made in house; host or cells: E. coli

[6] = target: T5, recombinant GTase A320 (Arabidopsis thaliana, UniProt Q9LVF0); test: as above; assay type: biochemical; details: 5 mM UDPG, 0.2 μg GTase, 200 μl, 20° C., 30 min
T5 construct: made in house; host or cells: E. coli
T5 sequence (Q9LVF0 1-496): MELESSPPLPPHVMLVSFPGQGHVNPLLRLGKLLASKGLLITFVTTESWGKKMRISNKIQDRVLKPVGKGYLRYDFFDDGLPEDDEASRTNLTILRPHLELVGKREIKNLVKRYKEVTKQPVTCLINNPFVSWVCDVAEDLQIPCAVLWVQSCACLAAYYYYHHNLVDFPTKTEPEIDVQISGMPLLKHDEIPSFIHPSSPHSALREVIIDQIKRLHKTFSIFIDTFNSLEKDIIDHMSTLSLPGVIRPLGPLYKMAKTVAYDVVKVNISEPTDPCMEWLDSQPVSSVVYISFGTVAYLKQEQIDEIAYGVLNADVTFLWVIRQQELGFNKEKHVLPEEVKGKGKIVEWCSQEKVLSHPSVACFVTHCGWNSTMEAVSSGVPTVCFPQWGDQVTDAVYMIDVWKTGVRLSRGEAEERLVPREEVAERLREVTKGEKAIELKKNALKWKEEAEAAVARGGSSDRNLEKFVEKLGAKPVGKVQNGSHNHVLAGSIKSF

[7] = target: T6, recombinant GTase A062 (Arabidopsis thaliana, UniProt Q9LR44); test: as above; assay type: biochemical; details: 0.5 ml of potential substrates, 5 mM UDPG, 0.2 μg GTase, 200 μl, 20° C., 30 min
T6 construct: made in house; host or cells: E. coli
T6 sequence (Q9LR44 1-469): B1 chain

[8] = target: T2, recombinant GTase A42; test: Kinetic studies (Michaelis-Menten) on recombinant GTase producing glucose esters; assay type: biochemical; details: glucose ester formation
[9] = target: T7, recombinant GTase A233 (Arabidopsis thaliana, UniProt Q8W491); test: Specific activity of recombinant GTase producing O-glucosides against lignin precursors (HPLC); assay type: biochemical; details: 30° C.; ND = not detected
T7 construct: made in house; host or cells: E. coli

[10] = target: T8, recombinant GTase A961 (Arabidopsis thaliana, UniProt O82381); test: as above; assay type: biochemical; details: 30° C.; ND = not detected
T8 construct: made in house; host or cells: E. coli
T8 sequence (O82381 1-481): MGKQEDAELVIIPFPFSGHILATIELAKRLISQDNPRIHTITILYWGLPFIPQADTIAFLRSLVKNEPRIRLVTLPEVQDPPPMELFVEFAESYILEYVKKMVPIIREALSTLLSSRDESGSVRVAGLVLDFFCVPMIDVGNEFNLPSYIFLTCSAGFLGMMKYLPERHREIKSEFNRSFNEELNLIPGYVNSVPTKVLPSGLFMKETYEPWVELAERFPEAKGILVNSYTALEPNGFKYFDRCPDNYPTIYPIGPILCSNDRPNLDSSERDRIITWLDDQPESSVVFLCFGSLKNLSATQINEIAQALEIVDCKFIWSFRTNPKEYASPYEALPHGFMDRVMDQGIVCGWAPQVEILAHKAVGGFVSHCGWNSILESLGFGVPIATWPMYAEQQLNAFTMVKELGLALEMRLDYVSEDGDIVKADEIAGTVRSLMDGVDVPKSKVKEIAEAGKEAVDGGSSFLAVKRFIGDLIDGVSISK

[11] = target: T9, recombinant GTase A407 (Arabidopsis thaliana, UniProt O81498); test: as above; assay type: biochemical; details: 30° C.; ND = not detected
T9 construct: made in house; host or cells: E. coli
T9 sequence (O81498 1-481): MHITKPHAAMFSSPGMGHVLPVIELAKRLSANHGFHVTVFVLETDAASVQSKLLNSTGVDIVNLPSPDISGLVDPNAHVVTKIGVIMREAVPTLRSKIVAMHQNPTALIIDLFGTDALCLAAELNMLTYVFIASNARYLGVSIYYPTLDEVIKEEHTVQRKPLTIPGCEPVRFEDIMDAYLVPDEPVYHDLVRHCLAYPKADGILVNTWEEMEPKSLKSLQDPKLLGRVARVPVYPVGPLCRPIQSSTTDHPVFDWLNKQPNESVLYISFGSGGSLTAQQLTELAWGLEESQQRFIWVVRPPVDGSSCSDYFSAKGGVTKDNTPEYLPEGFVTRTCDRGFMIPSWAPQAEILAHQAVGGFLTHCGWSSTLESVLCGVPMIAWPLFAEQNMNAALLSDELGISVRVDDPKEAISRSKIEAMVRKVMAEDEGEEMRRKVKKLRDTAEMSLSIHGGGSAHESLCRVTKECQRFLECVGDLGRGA

[12] = target: T10, UGT71C1 (Arabidopsis thaliana, UniProt O82381); test: UGT71C1 glucosyltransferase specific activity towards phenolic compounds (reverse-phase HPLC); assay type: biochemical; details: 1 mM phenolic compound, 5 mM UDP-glucose, 50 mM TRIS-HCl pH 7.0, 30° C., 30 min; mean of three replicates ± standard deviation
T10 construct: GST (N); made in house; host or cells: E. coli
T10 sequence (O82381 1-481): T8 sequence (O82381 1-481)

[13] = target: T11, recombinant GTase A119 (Arabidopsis thaliana, UniProt Q9LVR1); test: Specific activity of recombinant GTase producing O-glucosides against lignin precursors (HPLC); assay type: biochemical; details: 30° C.; ND = not detected
T11 construct: made in house; host or cells: E. coli
T11 sequence (Q9LVR1 1-481): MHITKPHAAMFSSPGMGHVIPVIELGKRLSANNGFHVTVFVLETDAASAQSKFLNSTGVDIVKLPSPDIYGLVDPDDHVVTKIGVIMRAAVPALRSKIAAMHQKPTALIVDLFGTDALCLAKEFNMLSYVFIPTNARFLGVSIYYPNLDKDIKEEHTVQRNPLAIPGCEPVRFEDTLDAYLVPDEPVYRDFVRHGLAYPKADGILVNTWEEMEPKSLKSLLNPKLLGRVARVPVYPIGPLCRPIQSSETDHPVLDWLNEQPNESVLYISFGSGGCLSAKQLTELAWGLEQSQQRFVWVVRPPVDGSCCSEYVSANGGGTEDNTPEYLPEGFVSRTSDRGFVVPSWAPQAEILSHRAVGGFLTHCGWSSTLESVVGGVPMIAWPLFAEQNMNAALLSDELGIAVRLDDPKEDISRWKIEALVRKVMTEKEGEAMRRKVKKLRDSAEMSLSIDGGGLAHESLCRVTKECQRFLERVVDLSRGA

[14] = substrate: O=C(O)C=Cc1ccccc1; test: Kinetic studies (Michaelis-Menten) on recombinant GTase producing glucose esters; assay type: biochemical, Arabidopsis thaliana; details: other: glucose ester formation; pH 7.0; 30.0 °C
[15] = substrate: O=C(O)/C=C/c1ccc(O)cc1; test: as above; assay type: biochemical, Arabidopsis thaliana; details: other: glucose ester formation; pH 7.0; 30.0 °C

Row | Molecule | Specific activity of A911 (substrate converted to glucose ester) [1] [nkat/mg] | Vmax (A911) [2] [nkat/mg] | Specific activity of A42 (substrate converted to glucose ester) [3] [nkat/mg] | Specific activity of A41 (substrate converted to glucose ester) [4] [nkat/mg] | Specific activity of A43 (substrate converted to glucose ester) [5] [nkat/mg] | Specific activity of A320 (substrate converted to glucose ester) [6] [nkat/mg] | Specific activity of A062 (substrate converted to glucose ester) [7] [nkat/mg] | Vmax (A42) [8] [nkat/mg] | Specific activity of A233 (substrate converted to 4-O-glucoside) [9] [nkat/mg] | Specific activity of A961 (substrate converted to 4-O-glucoside) [10] [nkat/mg] | Specific activity of A407 (substrate converted to 4-O-glucoside) [11] [nkat/mg] | Specific activity (UGT71C1) [12] [nkat/mg] | Specific activity of A119 (substrate converted to 4-O-glucoside) [13] [nkat/mg] | Km [14] [mM] | Vmax [14] [nkat/mg] | Km [15] [mM] | Vmax [15] [nkat/mg]
1 | O=C(O)C=Cc1ccccc1 [Cinnamic acid, cinnamic acid] | 8.77 | 9.06 | 14.21 | 0.30 | 0.02 | 0.06 | 1.62 | 19.42 |  |  |  |  |  |  |  |  | 
2 | O=C(O)C=Cc1ccc(O)c(O)c1 [Caffeic acid, 3,4-dihydroxycinnamic acid] | 0.77 |  |  |  | 0.01 | 0.05 | 0.26 |  | 0.48 | 0.07 | 0.07 | 2.9 ± 0.8 | 0.13 |  |  |  | 
3 | B1 |  |  |  |  |  |  |  |  |  |  |  |  |  | 4.33 | 2.87 | 5.05 | 4.91
